Laboratory results reported in ChEMBL document CHEMBL1275321, “Synthesis and antitumor activity of novel 6-aryl and 6-alkylpyrazolo[3,4-d]pyrimidin-4-one derivatives” (Eur J Med Chem, 2010).
Values after ≈ are worked out from the molar mass of the structure shown.

System: HCT-116
Assay: Cytotoxicity against human HCT116 cells after 48 hrs by sulforhodamine B assay
Format: functional, cell-based
Conditions: HCT-116, 48 h

In the case of `CSc1nn(-c2ccccc2)c2nc(-c3cccc([N+](=O)[O-])c3)[nH]c(=O)c12`, the IC50 is reported as 0.67 µg/mL (≈ 1.77 µM).

`CSc1nn(-c2ccccc2)c2nc(CCNc3ccccc3)[nH]c(=O)c12` showed an IC50 of 1.34 µg/mL (≈ 3.55 µM).

Compound `CSc1nn(-c2ccccc2)c2nc(CCNc3ccc(S(N)(=O)=O)cc3)[nH]c(=O)c12` has an IC50 of 2.82 µg/mL (≈ 6.18 µM).

With `CSc1nn(-c2ccccc2)c2nc(CCNC3CCCCC3)[nH]c(=O)c12` the IC50 was 0.47 µg/mL (≈ 1.23 µM).

Compound `COc1ccc(NCc2nc3c(c(SC)nn3-c3ccccc3)c(=O)[nH]2)cc1` has an IC50 of 2.7 µg/mL (≈ 6.86 µM).

`CSc1nn(-c2ccccc2)c2c1C(=O)NC(c1ccccc1)N2` (configuration not stated) gave an IC50 of 2.4 µg/mL (≈ 7.13 µM).

In the case of `CSc1nn(-c2ccccc2)c2nc(CNc3ccc(S(N)(=O)=O)cc3)[nH]c(=O)c12`, the IC50 is reported as 3.09 µg/mL (≈ 6.98 µM).
